Measurements reported in patent US12312370B2, “Immunoproteasome inhibitors” (Principia Biopharma Inc., priority 2017, dated 2025).
Read-outs that look alike come from different tables or passages of the source.

Tests used:
[1] = target: immunoproteasome LMP7/B5i subunit (Homo sapiens, UniProt P28062); assay: Caliper-based proteasome enzymatic activity assay, LMP7; format: biochemical
[2] = target: constitutive proteasome β5c unit (Homo sapiens, UniProt P28074); assay: Caliper-based proteasome enzymatic activity assay, β5c; format: biochemical; settings: human recombinant constitutive proteasome 0.3 nM, FAM-labeled peptide substrate 1 μM, rt 3 h; read-out: β5c subunit IC50
[3] = human recombinant immunoproteasome 0.3 nM, FAM-labeled peptide substrate 1 μM, rt 3 h, read-out: LMP7 subunit IC50

Compound	IC50 [1, 3] [nM]	IC50 [2] [nM]	IC50 [1] [nM]
C=CC(=O)N1C[C@@H](F)[C@@H](OC(=O)N[C@@H](Cc2ccccc2)B(O)O)C1 [Example 124, ((R)-1-(((((3S,4R)-1-acryloyl-4-fluoropyrrolidin-3-yl)oxy)carbonyl)amino)-2-phenylethyl)boronic acid]	37.3	> 5000	
COC(=O)N1CCN(C(C)(C)C=C(C#N)C(=O)N2CC[C@H](COC(=O)N[C@@H](Cc3ccccc3)B(O)O)C2)CC1 [Example 96, ((R)-1-(((((S)-1-(2-cyano-4-(4-(methoxycarbonyl)piperazin-1-yl)-4-methylpent-2-enoyl)pyrrolidin-3-yl)methoxy)carbonyl)amino)-2-phenylethyl)boronic acid]	8.7	1620	
CC(C)(C=C(C#N)C(=O)N1CCCC[C@@H](OC(=O)N[C@@H](Cc2ccccc2)B(O)O)C1)N1CCOC2(CC2)C1 [Example 133, ((R)-1-(((((R)-1-(2-cyano-4-methyl-4-(4-oxa-7-azaspiro[2.5]octan-7-yl)pent-2-enoyl)azepan-3-yl)oxy)carbonyl)amino)-2-phenylethyl)boronic acid]	1.4	942	
CC(C)C=C(C#N)C(=O)NCCCC[C@H](NC(=O)[C@H](C)NC(=O)C(C)C)C(=O)N[C@@H](Cc1ccccc1)B(O)O [Example 4, ((R)-1-((S)-6-(2-cyano-4-methylpent-2-enamido)-2-((S)-2-isobutyramidopropanamido)hexanamido)-2-phenylethyl)boronic acid]	14	23.7	
CC(C)(C=C(C#N)C(=O)N1CCC[C@H](OC(=O)N[C@@H](CC2=CCCC2)B(O)O)C1)N1CCOCC1 [Example 121, ((R)-1-(((((S)-1-(2-cyano-4-methyl-4-morpholinopent-2-enoyl)piperidin-3-yl)oxy)carbonyl)amino)-2-(cyclopent-1 en-1-yl)ethyl)boronic acid]	7.8	> 5000	
CC(C)(C=C(C#N)C(=O)N1CCCC[C@@H](OC(=O)N[C@@H](Cc2ccc(F)cc2)B(O)O)C1)N1CCOCC1 [Example 137, ((R)-1-(((((R)-1-(2-cyano-4-methyl-4-morpholinopent-2-enoyl)azepan-3-yl)oxy)carbonyl)amino)-2-(4-fluorophenyl)ethyl)boronic acid]	1.9	2080	
CC(C)C=C(C#N)C(=O)NCCCC[C@H](NC(=O)c1cc(Cl)ccc1Cl)C(=O)N[C@@H](CC(C)C)B(O)O [Example 3, ((R)-1-((S)-6-(2-cyano-4-methylpent-2-enamido)-2-(2,5-dichlorobenzamido)hexanamido)-3-methylbutyl)boronic acid]	29.6	8.5	
C=CC(=O)N1CCC[C@H](OC(=O)N[C@@H](Cc2ccc(F)cc2)B(O)O)C1 [Example 70, ((R)-1-(((((S)-1-acryloylpiperidin-3-yl)oxy)carbonyl)amino)-2-(4-fluorophenyl)ethyl)boronic acid]		> 5000	106
CC(C)C=C(C#N)C(=O)N1CCC[C@@H]1COC[C@H](NCC(F)(F)F)C(=O)N[C@@H](CC(C)C)B(O)O [Example 28]	46	294	
C=C(F)C(=O)N1C2CCC1(COC(=O)N[C@@H](Cc1ccc(F)cc1)B(O)O)CC2 [Example 75, (R)-(1-((((7-(2-fluoroacryloyl)-7-azabicyclo[2.2.1]heptan-1-yl)methoxy)carbonyl)amino)-2-(4-fluorophenyl)ethyl)boronic acid]	129	> 5000	
COC(=O)N1CCN(C(C)(C)C=C(C#N)C(=O)N2CCCC[C@H](OC(=O)N[C@@H](Cc3ccccc3)B(O)O)C2)CC1 [Example 108, ((R)-1-(((((S)-1-(2-cyano-4-(4-(methoxycarbonyl)piperazin-1-yl)-4-methylpent-2-enoyl)azepan-3-yl)oxy)carbonyl)amino)-2-phenylethyl)boronic acid]	1.2	3000	

More lines, main results first:

IC50 [1, 3] [nM]	IC50 [2] [nM]	Compound	IC50 [1] [nM]
1.3	1	CC(C)C=C(C#N)C(=O)NCCCC[C@H](NC(=O)c1cccc(O)n1)C(=O)N[C@@H](CC(C)C)B(O)O [Example 7, ((R)-1-((S)-6-(2-cyano-4-methylpent-2-enamido)-2-(6-hydroxypicolinamido)hexanamido)-3-methylbutyl)boronic acid]	
2.3	520	CC(C)(C=C(C#N)C(=O)N1C[C@@H](F)[C@H](OC(=O)N[C@@H](Cc2ccccc2)B(O)O)C1)N1CCC(F)(F)C1 [Example 113, ((R)-1-(((((3R,4R)-1-(2-cyano-4-(3,3-difluoropyrrolidin-1-yl)-4-methylpent-2-enoyl)-4-fluoropyrrolidin-3-yl)oxy)carbonyl)amino)-2-phenylethyl)boronic acid]	
1.3	967	C[C@@H]1CN(C(C)(C)C=C(C#N)C(=O)N2C3CCC2(COC(=O)N[C@@H](Cc2ccccc2)B(O)O)CC3)C[C@@H](C)O1 [Example 126, ((R)-1-((((7-(2-cyano-4-((2R,6R)-2,6-dimethylmorpholino)-4-methylpent-2-enoyl)-7-azabicyclo[2.2.1]heptan-1-yl)methoxy)carbonyl)amino)-2-phenylethyl)boronic acid]	
6.9	2640	CC(C)(C=C(C#N)C(=O)N1CC[C@H](COC(=O)N[C@@H](Cc2ccccc2)B(O)O)C1)N1CCC(F)(F)C1 [Example 95, ((R)-1-(((((S)-1-(2-cyano-4-(3,3-difluoropyrrolidin-1-yl)-4-methylpent-2-enoyl)pyrrolidin-3-yl)methoxy)carbonyl)amino)-2-phenylethyl)boronic acid]	
3.2	1590	CC(C)(C=C(C#N)C(=O)N1CC[C@@H](OC(=O)N[C@@H](Cc2ccccc2)B(O)O)C1)N1CCC(F)(F)C1 [Example 90, ((R)-1-(((((R)-1-(2-cyano-4-(3,3-difluoropyrrolidin-1-yl)-4-methylpent-2-enoyl)pyrrolidin-3-yl)oxy)carbonyl)amino)-2-phenylethyl)boronic acid]	
11.6	> 5000	COC(=O)N1CCN(C(C)(C)C=C(C#N)C(=O)N2CCC[C@H](OC(=O)N[C@@H](CC3=CCCC3)B(O)O)C2)CC1 [Example 120, ((R)-1-(((((S)-1-(2-cyano-4-(4-(methoxycarbonyl)piperazin-1-yl)-4-methylpent-2-enoyl)piperidin-3-yl)oxy)carbonyl)amino)-2-(cyclopent-1-en-1-yl)ethyl)boronic acid]	
1.7	715	Cc1ccc(C[C@H](NC(=O)OC[C@H]2CCCN(C(=O)C(C#N)=CC(C)(C)N3CCC(F)(F)C3)C2)B(O)O)cc1 [Example 52, ((R)-1-(((((S)-1-(2-cyano-4-(3,3-difluoropyrrolidin-1-yl)-4-methylpent-2-enoyl)piperidin-3-yl)methoxy)carbonyl)amino)-2-(p-tolyl)ethyl)boronic acid]	
78.3	2840	C=CC(=O)N1C[C@H](OC(=O)N[C@@H](Cc2ccccc2)B(O)O)[C@@H](F)C1 [Example 110, ((R)-1-(((((3S,4S)-1-acryloyl-4-fluoropyrrolidin-3-yl)oxy)carbonyl)amino)-2-phenylethyl)boronic acid]	
72	175	CC(C)C=C(C#N)C(=O)N(C)c1cccc(C[C@H](NCC(F)(F)F)C(=O)N[C@@H](CC(C)C)B(O)O)c1 [Example 27, ((R)-1-((S)-3-(3-(2-cyano-N,4-dimethylpent-2-enamido)phenyl)-2-((2,2,2-trifluoroethyl)amino)propanamido)-3-methylbutyl)boronic acid]	
87	1830	CCc1cccc(C[C@H](NC(=O)[C@H](COC[C@H]2CCCN2C(=O)C(C#N)=CC(C)C)NCC(F)(F)F)B(O)O)c1 [Example 30, ((R)-1-((S)-3-(((R)-1-(2-cyano-4-methylpent-2-enoyl)pyrrolidin-2-yl)methoxy)-2-((2,2,2-trifluoroethyl)amino)propanamido)-2-(3-ethylphenyl)ethyl)boronic acid]	
238	> 5000	CC1(OC(=O)N[C@@H](Cc2ccc(F)cc2)B(O)O)CCCN(C(=O)C(C#N)=CC(C)(C)N2CCC(F)(F)C2)C1 (mixture of isomers) [Example 94, ((1R)-1-((((1-(2-cyano-4-(3,3-difluoropyrrolidin-1-yl)-4-methylpent-2-enoyl)-3-methylpiperidin-3-yl)oxy)carbonyl)amino)-2-(4-fluorophenyl)ethyl)boronic acid]	
149	2100	C=C(F)C(=O)N1CCC[C@H](OC(=O)N[C@@H](Cc2ccc(F)cc2)B(O)O)C1 [Example 74, ((R)-1-(((((S)-1-(2-fluoroacryloyl)piperidin-3-yl)oxy)carbonyl)amino)-2-(4-fluorophenyl)ethyl)boronic acid]	
11	186	CC(C)(C=C(C#N)C(=O)N1CCO[C@@H](CC(=O)N[C@@H](Cc2ccccc2)B(O)O)C1)N1CCC(F)(F)C1 [Example 61, ((R)-1-(2-((S)-4-(2-cyano-4-(3,3-difluoropyrrolidin-1-yl)-4-methylpent-2-enoyl)morpholin-2-yl)acetamido)-2-phenylethyl)boronic acid]	
6.4	10.9	Cc1ccncc1C(=O)N[C@@H](CCCCNC(=O)C(C#N)=CC(C)C)C(=O)N[C@@H](Cc1ccccc1)B(O)O [Example 17, ((R)-1-((S)-6-(2-cyano-4-methylpent-2-enamido)-2-(4-methylnicotinamido)hexanamido)-2-phenylethyl)boronic acid]	
42.2	> 5000	CC(C)(C=C(C#N)C(=O)N1CCC[C@](C)(OC(=O)N[C@@H](Cc2ccccc2)B(O)O)C1)N1CCC(F)(F)C1 (single isomer, unassigned) [Example 92]	
145	3920	CC(C)(C=C(C#N)C(=O)N1CCC[C@@H](NC(=O)N[C@@H](Cc2ccccc2)B(O)O)C1)N1CCC(F)(F)C1 [Example 101, ((R)-1-(3-((R)-1-(2-cyano-4-(3,3-difluoropyrrolidin-1-yl)-4-methylpent-2-enoyl)piperidin-3-yl)ureido)-2-phenylethyl)boronic acid]	
